The text below walks through data of patent US12178790B2, “Antibacterial compound isolated from Psiloxylon mauritianum and its derivatives” (CENTRE NATIONAL DE LA RECHERCHE SCIENTIFIQUE(CNRS), priority 2021, dated 2024).

The term MIC denotes the smallest concentration in the dilution series that meets the test's criterion for growth inhibition. For orientation: viability means a read-out of living cells in per cent, often relative to untreated cells. A word on the IC50: it is the concentration that gives 50% inhibition.

Data set [1] has as its system Candida albicans (ATCC 10213). Nature of the data set: MIC determination (microdilution), C. albicans. Format: cell-based. As to conditions: for MIC: Candida albicans, ATCC10213. How it is done: (§1) The crude extract and pure compounds isolated were tested against human pathogenic microorganisms, including the bacterium Staphylococcus aureus (ATCC 29213), MRSA (ATCC 33591), Candida albicans (ATCC 10213), Trichophyton rubrum (SNB-TR1) and P. aeruginosa ATCC 27853 to screen their antibacterial and antifungal activities. All ATCC strains were purchased from the Pasteur Institute. The clinical isolate was provided by Prof. Philippe Loiseau, Université Paris Sud. The ITS sequence was deposited in the NCBI GenBank database under the registry number KC692746 corresponding to SNB-TR1 strain. The tests were conducted in accordance to the reference protocols from the European Committee on Antimicrobial Susceptibility Testing. The standard microdilutions, ranging from 256 to 0.25 μg/mL were made from stock solutions prepared in DMSO (Sigma-Aldrich, France). The microplates were incubated at 35° C., and MIC values were obtained after 48 h for C. albicans, 24 h for S. aureus and 5 days for T. rubrum. The MIC values reported in Table 2 refer to the lowest concentration preventing visible growth in the wells. Vancomycin (Sigma-Aldrich, Saint-Quentin Fallavier, France) and oxacillin (Sigma-Aldrich, Saint-Quentin Fallavier, France) were used as positive controls for bacteria. Fluconazole (Sigma-Aldrich, Saint-Quentin Fallavier, France) and itraconazole (Sigma-Aldrich, Saint-Quentin Fallavier, France) were used as positive controls for fungi. All assays were conducted in duplicate.

Data set [2] deals with Trichophyton rubrum (SNB-TR1). Nature of the data set: MIC determination (microdilution), T. rubrum. The class given is cell-based. Particulars: for MIC: Trichophyton rubrum, 120 h. How it is done: as §1
For another data set, the system named is MRSA (ATCC 33591). In words: MIC determination (microdilution), MRSA. Particulars: for MIC: Staphylococcus aureus, read-out: MIC MRSA ATCC 33591. The class given is cell-based, Staphylococcus aureus. How it is done:
as §1

Data set [3] concerns Staphylococcus aureus (ATCC 29213). Nature of the data set: MIC determination (microdilution), S. aureus. Format: cell-based. Particulars: for MIC: Staphylococcus aureus, ATCC29213. How it is done: as §1
The subject of data set [4] is Human lung fibroblast cells (MRC-5). Nature of the data set: Cytotoxicity evaluation, MTS assay. The class given is cell-based. How it is done:
(§2) Human lung fibroblast cells (MRC-5) were purchased from ATCC (Rockville, Md., USA) and cultured as recommended. Cell growth inhibition was determined by an MTS assay according to the manufacturer's instructions (Promega, Madison, Wis., USA). The cells were seeded in 96-well plates containing the growth medium. After 24 h of culture, samples were dissolved in DMSO (Sigma-Aldrich, France), and added to the cells (at 1 and 10 μM final concentrations). After 72 h of incubation, the reagent was added, and the absorbance at 490 nm was recorded using a plate reader. Cell viability was evaluated in comparison with untreated control cultures. Docetaxel (Taxotere) was used as positive control (IC50: 0.5 nM). All assays were conducted in triplicate.
A general note: Tetrazolium assays rely on reduction of a dye to a coloured formazan, in cell work by metabolically active cells.

Data set [5] relates to Enterococcus faecalis 29212. Nature of the data set: MIC against Gram-positive bacteria. The class given is cell-based.
For the next data set, the system named is S. aureus ATCC25923. Nature of the data set: MIC against Gram-positive bacteria. The class given is cell-based. As to conditions: Staphylococcus aureus.
Data set [6] has as its system Enterococcus faecium van B (clinical strain). Nature of the data set: MIC against Gram-positive bacteria. The class given is cell-based.
For data set [7], the system named is Corynebacterium sp. L2 220321 (clinical strain). Nature of the data set: MIC against Gram-positive bacteria. The class given is cell-based.
For data set [8], the system named is Bacillus sp. L4 210321 (clinical strain). Nature of the data set: MIC against Gram-positive bacteria. The class given is cell-based.
Data set [9] has as its system Enterococcus faecium SI299 (clinical strain). In words: MIC against Gram-positive bacteria. Format: cell-based.
A further data set deals with SARM NCTC 12493. In words: MIC against Gram-positive bacteria. The class given is cell-based. As to conditions: Staphylococcus aureus, NCTC12493.
Data set [10] relates to S. epidermis MSF G + 15 (clinical strain). Nature of the data set: MIC against Gram-positive bacteria. The class given is cell-based.
Data set [11] concerns Escherichia coli WT 25922. Nature of the data set: MIC against Gram-negative bacteria, alone or in combination with colistin. The class given is cell-based. How it is done:
as §1
(§3) Permeabilizers are compounds that weaken the outer membrane by enhance the permeability of bacterial cells to antimicrobial agents. [Farrag, H. A.; Abdallah, N.; Shehata, M. M. K.; Awad, E. M. J Biomed Sci, 2019, 26:69] Colistin a.k.a. polymyxin E were extensively used in clinical practice for Gram-negative organisms, but gradually withdrawn from the market due to reports of significant nephrotoxicity and neurotoxicity. [Mohamed, Y. F., Abou-Shleib, H. M., Khalil, A. M., El-Guink, N. M., & El-Nakeeb, M. A. Braz J Microbiol., 2016, 47, 381-388] In combinaison with various antibiotics, colistin is known to destabilize the outer membrane enhancing the antibacterial activity. In our study, we evaluated a combinaison of colistin at a sub-inhibitory concentration and Aspidin CB. […] (Table 5)

Data set [12] concerns Acinetobacter baummanii 19606. The data set is described as above. The class given is cell-based. How it is done: as §1, §3
Data set [13] deals with SARM G + 78 (clinical strain). Nature of the data set: MIC against Gram-positive bacteria. Particulars: Staphylococcus aureus. The class given is cell-based. How it is done:
as §1

Data set [14] has as its system SARM G + 86 (clinical strain). Nature of the data set: MIC against Gram-positive bacteria. The class given is cell-based. As to conditions: Staphylococcus aureus. How it is done:
as §1

The subject of data set [15] is SARM G + 82 (clinical strain). Nature of the data set: MIC against Gram-positive bacteria. The class given is cell-based. Particulars: Staphylococcus aureus. How it is done:
as §1

Data set [16] relates to SARM G + 79 (clinical strain). In words: MIC against Gram-positive bacteria. The class given is cell-based. Particulars: Staphylococcus aureus. How it is done: as §1
A short description of data set [17]: Cytotoxicity evaluation, MTS assay. The class given is cell-based. As to conditions: human, MRC-5 human lung fibroblast cells, 72 h, read-out: MRC5 Cell Viability. How it is done:
as §2

Data set [18] has as its system S. epidermis MSF G + 16 (clinical strain). In words: MIC against Gram-positive bacteria. Format: cell-based.
Data set [19] is described as follows: ABTS radical scavenging (antioxidant) assay. The class given is biochemical. Particulars: at 50 μg/ml. The source says:
P. mauritianum extracts were investigated for their antioxidant activities with using an ABTS [2,2′-azinobis-(3-ethylbenzothiazoline-6-sulfonate)] assay.

Where [20] appears, read: human pathogenic fungi, in words.
Where [21] appears, read: colistin at sub-inhibitory concentration, in words.

In brackets after ≈: the same amount, converted by molar mass. Where two headings read alike, the source gives them in different places.

Regarding `CCCC(=O)C1=C(O)C(Cc2c(O)c(C)c(OC)c(C(=O)CCC)c2O)=C(O)C(C)(C)C1=O` [Compound 1, Aspidin BB], the “MIC C. albicans ATCC 10213” value in data set [1] (Table 6, 48 h) is more than 256 µg/mL. Further, the “Antifungal activity against C. albicans” value in data set [1] (setting [20]) was “inactive”. Moreover, in data set [2] (Table 6, 5 days), the “MIC T. rubrum SNB-TR1” value is more than 256 µg/mL. The “Antifungal activity against T. rubrum” value in data set [2] (setting [20]) was “inactive”. Further, the “MIC MRSA ATCC 33591” value with MRSA (ATCC 33591) (Table 6 and text) came to 1 µg/mL (≈ 2.17 µM). Moreover, in the data set on MRSA (ATCC 33591) (in words), the “Antibacterial activity against MRSA” value was “strongly active”. In data set [3] (Table 6 and text, 24 h), the “MIC S. aureus ATCC 29213” value is 2 µg/mL (≈ 4.34 µM). For the same molecule, the “Antibacterial activity against S. aureus” value in [3] (in words) is given as “strongly active”. For the same molecule, the “MRC5 Cell Viability” value in data set [4] (10^−5 M, 72 h) was 86 ± 3%; in [4] (10^−6 M, 72 h), 104 ± 1%.
Turning to `CCCCCC(=O)C1=C(O)C(C)(C)C(O)=C(Cc2c(O)c(C)c(OC)c(C(=O)CCC)c2O)C1=O` [Compound 2, Aspidin CB], the MIC in [5] was found to be 8 µg/mL (≈ 16.4 µM); against S. aureus ATCC25923, 0.5 µg/mL (≈ 1.02 µM); in data set [6], 0.5 µg/mL (≈ 1.02 µM); in [7], 1 µg/mL (≈ 2.05 µM); in data set [8], 1 µg/mL (≈ 2.05 µM); in data set [9], 8 µg/mL (≈ 16.4 µM). The MIC is more than 256 µg/mL in [1] (Table 6, 48 h); 0.5 µg/mL (≈ 1.02 µM) against SARM NCTC 12493; 0.5 µg/mL (≈ 1.02 µM) in data set [10]; more than 64 µg/mL in data set [11] (Escherichia coli, WT25922, single agent); more than 64 µg/mL in [12] (Acinetobacter, 19606, single agent); 0.5 µg/mL (≈ 1.02 µM) in data set [13]. Besides, the MIC in data set [14] was determined as 0.5 µg/mL (≈ 1.02 µM); in data set [15] it was 0.5 µg/mL (≈ 1.02 µM); in data set [16], 1 µg/mL (≈ 2.05 µM); in data set [2] (Table 6, 5 days), 256 µg/mL (≈ 524 µM); with MRSA (ATCC 33591) (Table 6 and text), 0.25 µg/mL (≈ 0.512 µM); in data set [3] (Table 6 and text, 24 h), 0.25 µg/mL (≈ 0.512 µM). The MIC in data set [18] was determined as 2 µg/mL (≈ 4.09 µM). Also, in data set [11] (setting [21]), the “Activity against E. coli in combination with colistin vs alone” value is listed as “unambiguously more active”. In data set [12] (setting [21]), the “Activity against A. baumanii in combination with colistin vs alone” value is “unambiguously more active”. Besides, the “Fold more potent than vancomycin against MRSA” value with MRSA (ATCC 33591) (ratio of MICs) is 16 fold. Besides, the “Fold stronger activity of compound 2 vs compound 1 on S. aureus strains” value in [3] (S. aureus and MRSA, ratio of MICs) is given as 4-to 8 fold. Besides, the viability at 72 h in data set [17] (10^−5 M) stood at 99 ± 2%; in [17] (10^−6 M), 105 ± 2%. Also, the “Cytotoxicity in MRC5 cells” value in data set [4] (at 10^−5 M, in words) is listed as “no cytotoxicity was observed”.
Consider `CC(=O)O[C@@]12CO[C@@H]1C[C@H](O)[C@@]1(C)C(=O)[C@H](O)C3=C(C)[C@@H](OC(=O)[C@H](O)[C@@H](NC(=O)OC(C)(C)C)c4ccccc4)C[C@@](O)([C@@H](OC(=O)c4ccccc4)[C@H]21)C3(C)C` [Docetaxel, reference compound], for which the concentration for half-maximal inhibition (IC50) in [4] (Homo sapiens, MRC5, positive control, 72 h, read-out: IC50 cell growth inhibition MRC-5) turned out to be 500 pM.
`OC(Cn1cncn1)(Cn1cncn1)c1ccc(F)cc1F` [Fluconazole, reference compound]: the MIC in [1] (Table 6, 48 h) amounted to 1 µg/mL (≈ 3.27 µM); in [2] (Table 6, 5 days), 4 µg/mL (≈ 13.1 µM).
In the same order, the values of `CCC(C)n1ncn(-c2ccc(N3CCN(c4ccc(OCC5COC(Cn6cncn6)(c6ccc(Cl)cc6Cl)O5)cc4)CC3)cc2)c1=O` (centres unmarked) [Itraconazole, reference compound] are less than 0.5 µg/mL and less than 0.5 µg/mL.
In [3] (Table 6 and text, 24 h), `Cc1onc(-c2ccccc2)c1C(=O)N[C@@H]1C(=O)N2[C@@H]1SC(C)(C)[C@@H]2C(=O)O` [Oxacillin, reference compound] had an MIC of 0.25 µg/mL (≈ 0.623 µM).
Regarding `Cc1c(C)c2c(c(C)c1O)CCC(C)(C(=O)O)O2` (centres unmarked) [Trolox], in data set [19], the “% ABTS inhibition” value turned out to be 98.0%.
On to `CN[C@H](CC(C)C)C(=O)N[C@H]1C(=O)N[C@@H](CC(N)=O)C(=O)N[C@H]2C(=O)N[C@H]3C(=O)N[C@H](C(=O)N[C@H](C(=O)O)c4cc(O)cc(O)c4-c4cc3ccc4O)[C@H](O)c3ccc(c(Cl)c3)Oc3cc2cc(c3O[C@@H]2O[C@H](CO)[C@@H](O)[C@H](O)[C@H]2O[C@H]2C[C@](C)(N)[C@H](O)[C@H](C)O2)Oc2ccc(cc2Cl)[C@H]1O` [Vancomycin, reference compound], for which the MIC in the data set with MRSA (ATCC 33591) worked out at 4 µg/mL (≈ 2.76 µM).
As to Colistin [reference compound], in [11] (single agent), the “MIC Escherichia coli WT 25922” value was 1 µg/mL. In data set [12] (single agent), the “MIC Acinetobacter baummanii 19606” value came out at 4 µg/mL.
On to Tocopherol, for which the “% ABTS inhibition” value in [19] came to 97.6%.
